Experimental data reported in patent publication US20200093786A1, “S[…] OF CANNABIS FOR TREATING MULTIPLE MYELOMA” (One World Cannabis LTD, priority 2014, published 2020).
Where two headings read alike, the source gives them in different places.

How the values were obtained:
[1] = test system: CD138+ cells from myeloma patients; test: XTT cell viability and combination index, CD138+ cells from bone marrow aspirate of MM patients (Example 8); format: cell-based, human; settings: for survival of MM cells (in words): CD138+ patient cells, each of the patients tested, concentration dependent manner, FIG. 4; for IC50: Homo sapiens, read-out: dose that caused 50% of MM cell death (IC50); for sensitivity of the patient's cells / more effective combination (in words): CD138+ cells, 48 hours
Protocol: This conversion only occurs in viable cells.
Peripheral blood samples from MM patients and healthy donors are processed by Ficoll density gradient centrifugation to isolate peripheral blood mononuclear cells (PBMCs). […] For co-culture assays MM cells are stained with CFSE, cultured in the presence of HS-5 human stroma cell line, treated with the drugs and their viability is evaluated by counterstained with PI and cell viability evaluation by flow cytometer analysis.
XTT assay was performed to assess cell viability. Each treatment was performed in triplicate and presented as mean±SE.
Combination Index (CI) value <1, =1, >1 indicates synergism, additive effect, and antagonism, respectively. Pat 1, 2, 3 indicate the patient number.

[2] = test system: RPMI-MR20 (mitoxantrone-resistant cells); test: XTT cell viability, mitoxantrone-resistant MM cells (Example 9); format: cell-based; settings: RPMI-MR20, 48 hours, concentration dependent manner, FIG. 5
Protocol: (§1) RPMI-MR20, RPMI-LR5 and RPMI-Dox40 were cultured during 48 hours with CBD (FIG. 5A), THC (FIG. 5B), CBD:THC 1:1 (FIG. 5C), CBD:THC 1:5 (FIG. 5D) and CBD:THC 5:1 (FIG. 5E). XTT assay was performed to assess cell viability.

[3] = test system: RPMI-LR5 (LEN-resistant cells); test: XTT cell viability, LEN-resistant MM cells (Example 9); format: cell-based; settings: RPMI-LR5, 48 hours, concentration dependent manner, FIG. 5
Protocol: as §1

[4] = test system: RPMI-Dox40 (DOXO-resistant cells); test: XTT cell viability, DOXO-resistant MM cells (Example 9); format: cell-based; settings: RPMI-Dox40, 48 hours, concentration dependent manner, FIG. 5
Protocol: as §1

MM cells = settings: CBD by itself or in synergy with bortezomib; reference [8]; cited from earlier work

| Compound | survival of MM cells (in words) [1] | IC50 ([1]; CD138+ cells of patients 1 to 3, 48 hours, FIG. 4D) | sensitivity of the patient's cells / more effective combination (in words) ([1]; Patient 1 (SM, no treatment)) | sensitivity of the patient's cells / more effective combination (in words) ([1]; Patient 2 (VTD)) | survival of MM cells (in words) [2] | survival of MM cells (in words) [3] | survival of MM cells (in words) [4] | growth of MM cells (in words) (MM cells) | IC50 ([1]; 48 h) | sensitivity of the patient's cells / more effective combination (in words) ([1]; Patient 3 (VCD)) |
| --- | --- | --- | --- | --- | --- | --- | --- | --- | --- | --- |
| C=C(C)[C@@H]1CCC(C)=C[C@H]1c1c(O)cc(CCCCC)cc1O [CBD, Cannabidiol] | decreased survival | 6.7 to 12.5 µM | less sensitive to CBD than to THC | slightly more sensitive to CBD than to THC | decreased survival | decreased survival | decreased survival | strongly inhibited growth |  |  |
| CCCCCc1cc(O)c2c(c1)OC(C)(C)[C@@H]1CCC(C)=C[C@@H]21 [THC, Tetrahydrocannabinol] | decreased survival |  |  |  | decreased survival | decreased survival | decreased survival |  | 6 to 35 µM | less sensitive to THC than to CBD |
